From US11331294B2, “Benzoquinone derivative E3330 in combination with chemotherapeutic agents for the treatment of bladder cancer” (Indiana University Research and Technology Corporation, priority 2007, dated 2022)

Legend:
[1] = tested on: SW780, T24, UC3 cell lines; test: Methylene blue cell growth assay, bladder cancer cell panel; type: cell-based, human
Description: FIGS. 31A & 31B. Treatment with APE1/Ref-1 inhibitors potently blocks bladder cancer cell proliferation and activated Caspase 3/7. […] The IC50 values for FIG. 31A were determined using the methylene blue assay, n=4. […] T24 and UC3 cells were treated with APX2009 and APX2014 at the IC50 and IC90 and monitored over time for activation of capsase 3/7 by an increase in red fluorescence. Time course graphs are shown in FIG. 31B and representative images at 48 hr are shown in FIG. 32A (described more fully below), n=3-4.
Bladder cancer cell proliferation was inhibited and apoptosis was induced by potent, selective redox inhibitors of APE1/Ref-1.

UC3 and T24 cells = test: Incucyte caspase-3/7 apoptosis assay; type: cell-based, human; conditions: red fluorescence over time
Description: UC3 and T24 cells were plated in 96-well plates at 3,500 cell/well and allowed to attach overnight. Increasing amounts of APX2009 or APX2014 were added to each well along with 1 μM of the caspase reagent (Caspase-3/7 Red, Essen Bioscience) and then the cells were allowed to recover for 2 hours prior to beginning imaging with the Incucyte system (Essen Bioscience). Each well was imaged for phase contrast as well as red fluorescence every 2 hours for 96 hours. The Incucyte software generated movies of the cells following treatment as well as real-time imaging data with red fluorescence normalized to the percent confluency of the well.
To assay for caspase-3/7 mediated apoptosis, the increase in red fluorescence was analyzed over time following the addition of APX2009 and APX2014.

[2] = tested on: RP-B-01, RP-B-02 and T24 cell lines; test: Alamar blue combination study with cisplatin; type: cell-based, human; conditions: combined with increasing concentrations of cisplatin, 72 h
Description: FIGS. 30A-30C. […] RP-B-01, RP-B-02, and T24 cell lines were treated with increasing concentrations of cisplatin in combination with a single dose of either APX2009 or APX2014 as indicated (n=3±SE). Cell proliferation was normalized to Saline control and expressed as Fold Change. Combination index (CI) values calculated with Compusyn for combination of APX inhibitors and cisplatin. CI values indicated mainly additivity (0.95-1.2) to synergy (0.8-0.94).
Bladder cancer cell lines (BLCAb001 (RP-B-01) and BLCAb002 (RP-B-02) maintained in RPMI growth medium with 10% FBS were plated at 4,000 cells/well in poly-D-lysine treated 96-well clear bottom black plates and grown overnight in 5% CO2 at 37° C. Cells in monolayer were then treated with increasing concentrations of redox-specific inhibitor APX3330, APX2014 or APX2009 and serially diluted 1:2 in a 5-point dose scheme. For combination studies, cells were treated with both cisplatin and APX compounds to determine efficacy. After 72 hours, fresh RPMI medium with 5% FBS was exchanged, and a fluorescent metabolic indicator, Alamar Blue was added to each well at 10% final concentration. After a 4 hour incubation, plates were read on a Synergy H4 (Bio-Tek) plate reader. […]
APE1/Ref-1 inhibition enhances cisplatin's therapeutic effect. […] Cell proliferation was assessed using Alamar blue 72 h after drug treatment.

sensory neurons = test: Ex vivo model of sensory neurons in culture (neurotoxicity); type: cell-based
ECFC colonies = test: Limiting dilution assay (LDA); type: cell-based; conditions: 25, 37.5, 50 μM
Description: Limiting dilution assay. […] ECFCs were cultured as previously described (Blood, 1 Nov. 2004, Vol. 104, No. 9, pp. 2752-2760). ECFC colonies appeared between 5 and 22 days of culture. Colonies and the number of cells per colony were counted by visual inspection using an inverted microscope. […] Increasing amounts of APX3330(RN3-3) leads to a decrease in the number of colonies with large numbers of cells and an increase in colonies with only small cell numbers indicative of inhibition of cell growth. (FIG. 9). (In FIG. 9, the bars are, left to right, EtOH, and E330 dosed at 25 μM, 37.5 μM, and 50 μM.)

MCF-7 tumor cells = test: MTS cell survival assay MCF-7; type: cell-based, human; conditions: about 24 or 72 h
Description: (§1) Decreased cancer cell survival. MCF-7 or OVCAR-3 cells (about 2-4,000) were aliquoted into each well of a 96-well plate in triplicate and allowed to adhere overnight. APX3330 (RN3-3) was added to the cultures. After about 24 or 72 h, about 0.05 mg/mL 3-(4-5-Dimethylthiazol-2-yl)-5-(3-carboxymethoxyphenyl)-2-(4-sulfophenyl)-2H-tetrazolium salt (MTS) reagent was added to each well and incubated at about 37° C. for about 4 h followed by absorbance measurement at 490 nm. The values were standardized to wells containing media alone. […] Similar effects can be seen in multiple myeloma, prostate, non-small cell lung carcinoma, colon, and glioma derived cells.

OVCAR-3 tumor cells = test: MTS cell survival assay OVCAR-3; type: cell-based, human; conditions: about 24 or 72 h
Description: as §1

HL-60 cells = test: HL-60 differentiation and apoptosis with retinoic acid; type: cell-based
Description: APX3330 in combination with Retinoic Acid. […] HL-60 cells were treated with either vehicle (EtOH; control), APX3330, retinoic acid (RA) or APX3330 and RA at the concentrations indicated and morphology determined on day six. Morphological analysis indicated an increase in the differentiation of the HL-60 cells treated with APX3330 (RN3-3).

Compound	fold lower IC50 than APX3330 [1] [fold]	caspase-3/7 activation (UC3 and T24 cells)	cellular proliferation when combined with cisplatin [2]	neuroprotection against platinum-induced toxicity (sensory neurons)	growth of large cell number colonies (ECFC colonies)	killing of MCF-7 tumor cells (MCF-7 tumor cells)	killing of OVCAR-3 tumor cells (OVCAR-3 tumor cells)	increase in cells undergoing apoptosis, APX3330 and RA compared with RA alone (HL-60 cells; 25 μM APX3330, day 6)	reduction of RA required for same level of differentiation (CD11) (HL-60 cells; addition of APX3330 to RA)	cell differentiation in combination with retinoic acid (HL-60 cells; day six, morphology)	HL-60 cells undergoing apoptosis (annexin/PI) at lower doses of RA (HL-60 cells; lower doses of RA)
CCC/C(=C\C1=C(OC)C(=O)c2ccccc2C1=O)C(=O)N(CC)CC [APX2009, [(2E)-2-[(3-methoxy-1,4-dioxo-1,4-dihydronaphthalen-2-yl)methylidene]-N,N-diethylpentanamide]]	7	dose-dependent increase in caspase activation	further reduction in cellular proliferation	neuroprotective against cisplatin and oxaliplatin-induced toxicity of sensory neurons							
CCCCCCCCC/C(=C\C1=C(C)C(=O)C(OC)=C(OC)C1=O)C(=O)O [APX3330]					inhibit growth of large cell number colonies	dose dependently killed	dose dependently killed	~1.5	about 1000 fold	enhanced the effects of retinoic acid on promoting cell differentiation	did not significantly enhance the level of HL-60 cells undergoing apoptosis
